The target in assay [1] is T1, KDR (baculovirus expressed human KDR kinase domain D807-V1356) (Homo sapiens, UniProt P35968).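 Note: Luciferase-coupled chemiluminescent kinase assay, activity read as percent ATP left after 4 h reaction at ambient temperature, ATP near KM, 10-point dose-response in 384-well plates.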
T1 construct: human KDR kinase domain D807-V1356; host or cells: baculovirus expression
Put plainly: biochemical.

The target in assay [2] is T2, c-Met (baculovirus expressed human c-Met kinase domain P948-S1343) (Homo sapiens, UniProt P08581).
T2 construct: human c-Met kinase domain P948-S1343; host or cells: baculovirus expression
T2 sequence (P08581 1011-1343 limits assumed): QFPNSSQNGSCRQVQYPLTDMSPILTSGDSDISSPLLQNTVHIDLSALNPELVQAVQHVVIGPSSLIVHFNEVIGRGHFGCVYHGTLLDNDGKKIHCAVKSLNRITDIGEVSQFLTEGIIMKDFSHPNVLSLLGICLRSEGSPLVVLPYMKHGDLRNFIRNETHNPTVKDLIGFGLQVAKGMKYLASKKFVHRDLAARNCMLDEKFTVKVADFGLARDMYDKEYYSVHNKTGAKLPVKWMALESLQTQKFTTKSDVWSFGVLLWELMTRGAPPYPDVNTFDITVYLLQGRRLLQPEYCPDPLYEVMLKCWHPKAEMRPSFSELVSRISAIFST
The experiment in a line: c-Met Luciferase-Coupled Chemiluminescent Kinase assay (LCCA).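 Note: kinase activity read as percent ATP left after reaction, by luciferase-luciferin chemiluminescence, with 1 µM ATP and 1 µM poly-EY substrate, 2 h at ambient temperature, 10-point dose-response.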 In kind it is biochemical.

Assay [3] has as its target T3, Flt-3 (baculovirus expressed human Flt-3 kinase domain R571-S993) (Homo sapiens, UniProt P36888).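 Note: Luciferase-coupled chemiluminescent kinase assay, activity read as percent ATP left after a 3 h reaction at room temperature, ATP near KM, 10-point dose-response.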
T3 construct: human Flt-3 kinase domain R571-S993; host or cells: baculovirus expression
T3 sequence (P36888 571-993): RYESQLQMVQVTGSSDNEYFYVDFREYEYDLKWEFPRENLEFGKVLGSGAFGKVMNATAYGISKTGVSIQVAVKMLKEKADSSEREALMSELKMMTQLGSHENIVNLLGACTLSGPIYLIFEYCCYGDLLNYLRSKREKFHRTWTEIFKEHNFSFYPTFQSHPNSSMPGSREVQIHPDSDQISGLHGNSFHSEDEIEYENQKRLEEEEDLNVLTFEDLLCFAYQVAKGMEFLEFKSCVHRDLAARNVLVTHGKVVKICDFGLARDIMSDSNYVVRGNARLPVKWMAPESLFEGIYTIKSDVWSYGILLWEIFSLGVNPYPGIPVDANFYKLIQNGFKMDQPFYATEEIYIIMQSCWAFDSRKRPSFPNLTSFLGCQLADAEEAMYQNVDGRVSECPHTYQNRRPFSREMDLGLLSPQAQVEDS
Put plainly: biochemical. As to conditions: read-out: flt3 IC50.

Each structure is given as a SMILES string. Where only a bound is given, the exact number is not on record here.

The IC50 is the concentration needed to halve the response being measured.

T1 sequence (P35968 807-1356): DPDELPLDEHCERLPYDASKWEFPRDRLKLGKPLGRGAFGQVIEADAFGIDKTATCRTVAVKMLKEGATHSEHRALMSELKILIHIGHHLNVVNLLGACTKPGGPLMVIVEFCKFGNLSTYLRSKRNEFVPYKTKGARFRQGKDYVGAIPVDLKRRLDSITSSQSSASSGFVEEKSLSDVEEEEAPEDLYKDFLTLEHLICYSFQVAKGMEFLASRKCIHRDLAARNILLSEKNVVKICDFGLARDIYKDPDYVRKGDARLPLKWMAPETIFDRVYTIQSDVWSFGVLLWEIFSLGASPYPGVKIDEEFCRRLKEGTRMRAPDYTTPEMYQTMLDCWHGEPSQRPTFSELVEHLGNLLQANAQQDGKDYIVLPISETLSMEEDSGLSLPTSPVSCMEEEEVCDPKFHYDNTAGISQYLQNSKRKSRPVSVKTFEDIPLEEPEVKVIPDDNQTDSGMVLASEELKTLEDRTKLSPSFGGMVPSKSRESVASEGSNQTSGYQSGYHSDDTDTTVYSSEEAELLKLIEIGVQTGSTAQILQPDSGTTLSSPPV

Take `COc1cc2c(Oc3ccc(NC(=O)C4(C(=O)Nc5ccc(F)cc5)CC4)cc3F)ccnc2cc1OCCCN1CCN(C(=O)OC(C)(C)C)CC1` [Example 346, 1,1-dimethylethyl 4-(3-{[4-[(2-fluoro-4-{[(1-{[(4-fluorophenyl)amino]carbonyl}cyclopropyl)carbonyl]amino}phenyl)oxy]-6-(methyloxy)quinolin-7-yl]oxy}propyl)piperazine-1-carboxylate]: the IC50 in assay [1] is under 50 nM; in assay [2] it was under 50 nM; in assay [3] it was 50 to 500 nM.

In the case of `COc1cc2c(Oc3ccc(NC(=O)C4(C(=O)Nc5ccc(F)cc5)CCC4)cc3F)ccnc2cc1OCCCN1CCN(C)CC1` [Example 385, N-{3-fluoro-4-[(6-(methyloxy)-7-{[3-(4-methylpiperazin-1-yl)propyl]oxy}quinolin-4-yl)oxy]phenyl}-N′-(4-fluorophenyl)cyclobutane-1,1-dicarboxamide], the IC50 was under 50 nM in assay [1], under 50 nM in assay [2] and 500 to 5000 nM in assay [3].

As for `CCN(CC)CCCOc1cc2nccc(Oc3ccc(NC(=O)C4(C(=O)Nc5ccc(F)cc5)CCC4)cc3F)c2cc1OC` [Example 384, N-(4-{[7-{[3-(diethylamino)propyl]oxy}-6-(methyloxy)quinolin-4-yl]oxy}-3-fluorophenyl)-N′-(4-fluorophenyl)cyclobutane-1,1-dicarboxamide], the IC50 in assay [1] was under 50 nM; in assay [2], under 50 nM; in assay [3], 500 to 5000 nM.

For `CCN(CC)CCOc1cc2nccc(Oc3ccc(NC(=O)C4(C(=O)Nc5ccc(F)cc5)[C@H](C)[C@H]4C)cc3F)c2cc1OC` (stereo partly drawn) [Example 391, (2R,3R)-N-(4-{[7-{[2-(diethylamino)ethyl]oxy}-6-(methyloxy)quinolin-4-yl]oxy}-3-fluorophenyl)-N′-(4-fluorophenyl)-2,3-dimethylcyclopropane-1,1-dicarboxamide], the results for the half-inhibitory concentration (IC50) in assay [1], in assay [2] and in assay [3] were under 50 nM, under 50 nM and 50 to 500 nM, respectively.

On to `CCN(CC)CCOc1cc2nccc(Oc3ccc(NC(=O)[C@]4(C(=O)Nc5ccc(F)cc5)C[C@@H]4C)cc3F)c2cc1OC` [Example 362, (1R,2S)-N-(4-{[7-{[2-(diethylamino)ethyl]oxy}-6-(methyloxy)quinolin-4-yl]oxy}-3-fluorophenyl)-N′-(4-fluorophenyl)-2-methylcyclopropane-1,1-dicarboxamide], for which the half-inhibitory concentration (IC50) in assay [1], in assay [2] and in assay [3] was under 50 nM in each case.

As to `COc1cc2c(Oc3ccc(NC(=O)C4(C(=O)Nc5ccc(F)cc5)CCC4)cc3F)ncnc2cc1OCCCN1CCN(C)CC1` [Example 381, N-{3-fluoro-4-[(6-(methyloxy)-7-{[3-(4-methylpiperazin-1-yl)propyl]oxy}quinazolin-4-yl)oxy]phenyl}-N′-(4-fluorophenyl)cyclobutane-1,1-dicarboxamide], the results for the IC50 in assay [1], in assay [2] and in assay [3] were under 50 nM, under 50 nM and 50 to 500 nM, respectively.

Turning to `COc1cc2c(Oc3ccc(NC(=O)C4(C(=O)Nc5ccc(F)cc5)CC4(C)C)cc3F)ccnc2cc1OCCCN1CCOCC1` (stereo not drawn) [Example 377, N-[3-fluoro-4-({6-(methyloxy)-7-[(3-morpholin-4-ylpropyl)oxy]quinolin-4-yl}oxy)phenyl]-N′-(4-fluorophenyl)-2,2-dimethylcyclopropane-1,1-dicarboxamide], the half-maximal inhibitory concentration (IC50) in assay [1] was under 50 nM; in assay [2], under 50 nM; in assay [3], 50 to 500 nM.

For the molecule `CCN(CC)CCCOc1cc2ncnc(Oc3ccc(NC(=O)C4(C(=O)Nc5ccc(F)cc5)CCC4)cc3F)c2cc1OC` [Example 380, N-(4-{[7-{[3-(diethylamino)propyl]oxy}-6-(methyloxy)quinazolin-4-yl]oxy}-3-fluorophenyl)-N′-(4-fluorophenyl)cyclobutane-1,1-dicarboxamide], the IC50 is under 50 nM in assay [1], under 50 nM in assay [2] and 50 to 500 nM in assay [3].

With `CCN(CC)CCCOc1cc2ncnc(Oc3ccc(NC(=O)C4(C(=O)Nc5ccc(F)cc5)CC4(C)C)cc3F)c2cc1OC` (stereo not drawn) [Example 379, N-(4-{[7-{[3-(diethylamino)propyl]oxy}-6-(methyloxy)quinazolin-4-yl]oxy}-3-fluorophenyl)-N′-(4-fluorophenyl)-2,2-dimethylcyclopropane-1,1-dicarboxamide], the IC50 in assay [1] was under 50 nM; in assay [2] it was under 50 nM; in assay [3] it was 500 to 5000 nM.

Turning to `COc1cc2nccc(Oc3ccc(NC(=O)C4(C(=O)Nc5cccc(CN6CCOCC6)c5)CC4)cc3)c2cc1OC` [Example 396, N-(4-{[6,7-bis(methyloxy)quinolin-4-yl]oxy}phenyl)-N′-[3-(morpholin-4-ylmethyl)phenyl]cyclopropane-1,1-dicarboxamide], the values for the IC50 in assay [1], in assay [2] and in assay [3] were under 50 nM, 50 to 500 nM and under 50 nM, respectively.

On to `COc1cc2c(Oc3ccc(NC(=O)C4(C(=O)Nc5ccc(F)cc5)CC4)cc3F)ccnc2cc1OCCCN1CCN(C(C)C)CC1` [Example 357, N-(3-fluoro-4-{[7-({3-[4-(1-methylethyl)piperazin-1-yl]propyl}oxy)-6-(methyloxy)quinolin-4-yl]oxy}phenyl)-N′-(4-fluorophenyl)cyclopropane-1,1-dicarboxamide], for which the IC50 in assay [1], in assay [2] and in assay [3] was under 50 nM in each case.

`COc1cc2c(Oc3ccc(NC(=O)C4(C(=O)Nc5ccc(F)cc5)[C@H](C)[C@H]4C)cc3F)ncnc2cc1OCCCN1CCOCC1` (stereo partly drawn) [Example 383, (2R,3R)-N-[3-fluoro-4-({6-(methyloxy)-7-[(3-morpholin-4-ylpropyl)oxy]quinazolin-4-yl}oxy)phenyl]-N′-(4-fluorophenyl)-2,3-dimethylcyclopropane-1,1-dicarboxamide]: the 50% inhibitory concentration (IC50) in assay [1] is under 50 nM; in assay [2], under 50 nM; in assay [3], 500 to 5000 nM.

As for `CCN(CC)CCOc1cc2ncnc(Oc3ccc(NC(=O)[C@]4(C(=O)Nc5ccc(F)cc5)C[C@H]4C)cc3F)c2cc1OC` [Example 348, (1R,2R)-N-(4-{[7-{[2-(diethylamino)ethyl]oxy}-6-(methyloxy)quinazolin-4-yl]oxy}-3-fluorophenyl)-N′-(4-fluorophenyl)-2-methylcyclopropane-1,1-dicarboxamide], the figures for the 50% inhibitory concentration (IC50) in assay [1], in assay [2] and in assay [3] were under 50 nM, under 50 nM and 50 to 500 nM, respectively.

Consider `COc1cc2nccc(Oc3ccc(NC(=O)C4(C(=O)Nc5ccccc5CN5CCCC5)CC4)cc3)c2cc1OC` [Example 395, N-(4-{[6,7-bis(methyloxy)quinolin-4-yl]oxy}phenyl)-N′-[2-(pyrrolidin-1-ylmethyl)phenyl]cyclopropane-1,1-dicarboxamide], for which the values for the IC50 in assay [1], in assay [2] and in assay [3] were 500 to 5000 nM, 50 to 500 nM and 50 to 500 nM, respectively.

On to `COc1cc2nccc(Oc3ccc(NC(=O)C4(C(=O)Nc5ccccc5)CC4)cc3)c2cc1OC` [Example 398, N-(4-{[6,7-bis(methyloxy)quinolin-4-yl]oxy}phenyl)-N′-phenylcyclopropane-1,1-dicarboxamide], for which the half-maximal inhibitory concentration (IC50) in assay [1], in assay [2] and in assay [3] was under 50 nM in each case.

With `COc1cc2nccc(Oc3ccc(NC(=O)C4(C(=O)Nc5ccccc5CN5CCOCC5)CC4)cc3)c2cc1OC` [Example 397, N-(4-{[6,7-bis(methyloxy)quinolin-4-yl]oxy}phenyl)-N′-[2-(morpholin-4-ylmethyl)phenyl]cyclopropane-1,1-dicarboxamide], the IC50 was 500 to 5000 nM in assay [1], 50 to 500 nM in assay [2] and 50 to 500 nM in assay [3].
